Assays:
[1] = molecular target: T1, EGFR (aa668-1210, Invitrogen) (Homo sapiens, UniProt P00533); experiment: Biochemical EGFR inhibition assay (TR-FRET), wild-type EGFR; conditions: ATP at Km, 15 min pre-incubation, 60 min reaction; read-out: WT (Km ATP) IC50
T1 construct: EGFR (aa668-1210, Invitrogen); purchased Invitrogen
Experimental: (§1) Compounds were tested for inhibition of kinase activity against EGFR (aa668-1210, Invitrogen), EGFR(L858R_T790M_C797S) (aa695-end, Invitrogen) and EGFR(Dell9_T790M_C797S) (aa 669-1210, in house) in assays based on time-resolved fluorescence-resonance energy transfer (TR-FRET) methodology. Recombinant EGFR, EGFR(L858R_T790M_C797S) or EGFR(Dell9_T790M_C797S) was pre-incubated with the compounds at room temperature for 15 minutes in an assay buffer containing 50 mM HEPES pH7.5, 10 mM MgCl2, 2 mM DTT, 1 mM EGTA, 0.1% BSA, 0.01% Tween-20. The reactions were initiated by the addition of ATP (at the concentration of ATP Km) and substrate Biotin-Poly GT. After reaction at room temperature for 60 minutes, stop/detection solution was added. The stop/detection solution contained Eu^3+ cryptate-conjugated mouse monoclonal antibody (PT66) anti-phosphotyrosine and XL665-conjugated streptavidin in buffer containing 50 mM HEPES pH7.0, 800 mM KF, 20 mM EDTA, and 0.1% BSA. Plates were sealed and incubated at room temperature for 1 hour, and the TR-FRET signals (ratio of fluorescence emission at 665 nm over emission at 620 nm with excitation at 337 nm wavelength) were recorded on a PHERAstar FS plate reader (BMG Labtech). The residual enzyme activity in presence of increasing concentrations of compounds was calculated based on the ratio of fluorescence at 665 nm to that at 620 nm. The IC50 for each compound was derived from fitting the data to the four-parameter logistic equation by Dotmatics or Graphpad Prism software.
(§2) These biochemical EGFR enzyme form compound dose-response assays quantify the kinase activity via phosphorylation of a tagged poly-GT substrate. The results of the assay are provided as IC50 values.

[2] = molecular target: T2, EGFR(L858R_T790M_C797S) (aa695-end, Invitrogen) (Homo sapiens, UniProt P00533, C797S/L858R/T790M); experiment: Biochemical EGFR inhibition assay (TR-FRET), L858R/T790M/C797S mutant; conditions: ATP at Km, 15 min pre-incubation, 60 min reaction; read-out: LR_TM_CS (Km ATP) IC50
T2 construct: purchased Invitrogen
Experimental: as §1, §2

[3] = molecular target: EGFR(Dell9_T790M_C797S) (aa 669-1210, in house) (Homo sapiens, UniProt P00533, T790M/C797S, form not given); experiment: Biochemical EGFR inhibition assay (TR-FRET), Del19/T790M/C797S mutant; conditions: ATP at Km, 15 min pre-incubation, 60 min reaction; read-out: Del_TM_CS (Km ATP) IC50
Experimental: as §1, §2

Chain of EGFR(Dell9_T790M_C797S) (aa 669-1210, in house) (P00533 with tags, fused parts or gaps DEL746-750/T790M/C797S, form open): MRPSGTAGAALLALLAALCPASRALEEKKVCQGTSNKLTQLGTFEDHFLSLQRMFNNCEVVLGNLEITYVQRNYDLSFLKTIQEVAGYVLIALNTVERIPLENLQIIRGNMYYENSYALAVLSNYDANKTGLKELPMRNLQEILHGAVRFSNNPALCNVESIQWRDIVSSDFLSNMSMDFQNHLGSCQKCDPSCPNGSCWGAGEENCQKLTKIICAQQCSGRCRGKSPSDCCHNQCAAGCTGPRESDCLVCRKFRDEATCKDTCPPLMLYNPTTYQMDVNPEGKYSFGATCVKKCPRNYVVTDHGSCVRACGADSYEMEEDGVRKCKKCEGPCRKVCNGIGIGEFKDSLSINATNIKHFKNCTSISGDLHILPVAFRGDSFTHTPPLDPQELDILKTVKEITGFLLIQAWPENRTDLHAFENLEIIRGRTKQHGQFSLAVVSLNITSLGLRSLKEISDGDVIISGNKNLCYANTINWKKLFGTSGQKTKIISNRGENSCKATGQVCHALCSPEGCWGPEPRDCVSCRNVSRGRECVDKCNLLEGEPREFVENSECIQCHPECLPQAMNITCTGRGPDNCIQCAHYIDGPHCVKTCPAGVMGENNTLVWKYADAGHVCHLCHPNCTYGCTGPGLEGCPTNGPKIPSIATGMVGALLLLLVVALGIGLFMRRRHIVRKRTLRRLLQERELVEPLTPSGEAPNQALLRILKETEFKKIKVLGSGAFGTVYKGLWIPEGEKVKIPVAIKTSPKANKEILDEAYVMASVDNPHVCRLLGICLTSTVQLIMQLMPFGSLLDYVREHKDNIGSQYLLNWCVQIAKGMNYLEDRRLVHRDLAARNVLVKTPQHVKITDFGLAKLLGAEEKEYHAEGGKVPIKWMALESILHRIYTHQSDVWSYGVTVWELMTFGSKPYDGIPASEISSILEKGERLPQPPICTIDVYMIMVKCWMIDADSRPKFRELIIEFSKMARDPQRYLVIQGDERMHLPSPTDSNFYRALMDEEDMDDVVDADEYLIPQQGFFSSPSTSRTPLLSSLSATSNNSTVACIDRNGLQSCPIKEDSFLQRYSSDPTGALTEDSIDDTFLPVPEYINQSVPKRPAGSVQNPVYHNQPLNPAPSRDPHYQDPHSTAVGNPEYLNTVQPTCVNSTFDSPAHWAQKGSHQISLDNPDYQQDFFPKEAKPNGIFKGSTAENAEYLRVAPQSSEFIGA
T2 sequence (P00533 695-1210 T790M/C797S/L858R): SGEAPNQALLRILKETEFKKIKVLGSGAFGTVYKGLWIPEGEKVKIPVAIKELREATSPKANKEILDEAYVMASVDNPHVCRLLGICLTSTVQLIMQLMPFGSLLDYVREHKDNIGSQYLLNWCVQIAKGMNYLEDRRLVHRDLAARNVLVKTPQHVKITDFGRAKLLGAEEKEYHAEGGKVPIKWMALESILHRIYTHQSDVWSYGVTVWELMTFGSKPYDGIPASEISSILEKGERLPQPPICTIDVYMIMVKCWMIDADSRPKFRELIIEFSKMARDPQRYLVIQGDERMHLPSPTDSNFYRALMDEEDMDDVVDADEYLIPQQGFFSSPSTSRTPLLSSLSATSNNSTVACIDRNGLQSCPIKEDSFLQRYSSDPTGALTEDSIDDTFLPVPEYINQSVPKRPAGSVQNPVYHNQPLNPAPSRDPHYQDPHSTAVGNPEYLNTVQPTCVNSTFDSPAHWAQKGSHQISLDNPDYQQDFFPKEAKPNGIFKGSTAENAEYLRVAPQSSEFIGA
T1 sequence (P00533 668-1210): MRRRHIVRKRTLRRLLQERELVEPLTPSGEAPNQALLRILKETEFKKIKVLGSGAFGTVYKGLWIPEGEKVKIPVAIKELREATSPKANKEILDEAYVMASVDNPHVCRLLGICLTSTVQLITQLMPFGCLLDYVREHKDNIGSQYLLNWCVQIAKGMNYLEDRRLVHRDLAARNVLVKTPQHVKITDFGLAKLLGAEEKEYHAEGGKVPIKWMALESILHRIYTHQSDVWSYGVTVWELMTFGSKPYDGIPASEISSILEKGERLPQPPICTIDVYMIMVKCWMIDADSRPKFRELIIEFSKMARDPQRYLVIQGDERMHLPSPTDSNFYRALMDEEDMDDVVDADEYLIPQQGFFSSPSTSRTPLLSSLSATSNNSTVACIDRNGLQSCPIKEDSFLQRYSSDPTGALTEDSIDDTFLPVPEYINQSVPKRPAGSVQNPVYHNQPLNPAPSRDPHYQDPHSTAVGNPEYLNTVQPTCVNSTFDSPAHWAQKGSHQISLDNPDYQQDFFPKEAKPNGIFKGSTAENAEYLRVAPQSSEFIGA

| SMILES | IC50 [1] | IC50 [2] | IC50 [3] |
| --- | --- | --- | --- |
| COc1cc(C2CCN(CCN(C)C)CC2)c(C)cc1Nc1nc(Nc2cccc3c2N(S(C)(=O)=O)CC3)c2cc[nH]c2n1 [Example 109, N^2-(4-(1-(2-(dimethylamino)ethyl)piperidin-4-yl)-2-methoxy-5-methylphenyl)-N^4-(1-(methylsulfonyl)indolin-7-yl)-7H-pyrrolo[2,3-d]pyrimidine-2,4-diamine] | 433 nM | 3.1 nM | 10 nM |
| COc1cc(N2C[C@@H](C)N(C)[C@@H](C)C2)c(C)cc1Nc1ncc(Br)c(Nc2cccc3c2N(S(C)(=O)=O)CC3)n1 [Example 42, 5-bromo-N^2-(2-methoxy-5-methyl-4-((3S,5R)-3,4,5-trimethylpiperazin-1-yl)phenyl)-N^4-(1-(methylsulfonyl)indolin-7-yl)pyrimidine-2,4-diamine] | 8.5 nM | 0.4 nM | 0.3 nM |
| COc1cc(N2CCN(C)[C@@H](C)C2)c(C)cc1Nc1ncc(Br)c(Nc2cccc3c2N(S(C)(=O)=O)CC3)n1 [Example 43, (S)-5-bromo-N^2-(4-(3,4-dimethylpiperazin-1-yl)-2-methoxy-5-methylphenyl)-N^4-(1-(methylsulfonyl)indolin-7-yl)pyrimidine-2,4-diamine] | 12.1 nM | 0.5 nM | 0.5 nM |
| CN1CCN(C2CCN(c3ccc(Nc4nc(Nc5cccc6c5N(S(C)(=O)=O)CC6)c5cc[nH]c5n4)cn3)CC2)CC1 [Example 184, N2-(6-(4-(4-methylpiperazin-1-yl)piperidin-1-yl)pyridin-3-yl)-N4-(1-(methylsulfonyl)indolin-7-yl)-7H-pyrrolo[2,3-d]pyrimidine-2,4-diamine] | 427 nM | 1.7 nM | 2.5 nM |
| COc1cc(N2CCC(N3CCN(C)C4(CC4)C3)CC2)ccc1Nc1nc(Nc2cccc3c2N(S(C)(=O)=O)CC3)c2cc[nH]c2n1 [Example 189, N2-(2-methoxy-4-(4-(4-methyl-4,7-diazaspiro[2.5]octan-7-yl)piperidin-1-yl)phenyl)-N4-(1-(methylsulfonyl)indolin-7-yl)-7H-pyrrolo[2,3-d]pyrimidine-2,4-diamine] | 35.3 nM | 0.9 nM | 1.2 nM |
| CC1Cc2c(N3CCN(C)CC3)ccc(Nc3ncc(Br)c(Nc4cccc5c4N(S(C)(=O)=O)CC5)n3)c2O1 (stereo not drawn) [Example 62, 5-bromo-N^2-(2-methyl-4-(4-methylpiperazin-1-yl)-2,3-dihydrobenzofuran-7-yl)-N^4-(1-(methylsulfonyl)indolin-7-yl)pyrimidine-2,4-diamine] | 11.6 nM | 0.68 nM | 0.42 nM |
| COc1cc(N2[C@@H]3CC[C@H]2CN(C)C3)ccc1Nc1nc(Nc2cccc3c2N(S(C)(=O)=O)CC3)c2cc[nH]c2n1 [Example 111, N^2-(2-methoxy-4-((1R,5S)-3-methyl-3,8-diazabicyclo[3.2.1]octan-8-yl)phenyl)-N^4-(1-(methylsulfonyl)indolin-7-yl)-7H-pyrrolo[2,3-d]pyrimidine-2,4-diamine] | 146 nM | 2.8 nM | 11.1 nM |
| COc1cc(Nc2nc(Nc3cccc4c3N(S(C)(=O)=O)CC4)c3cc[nH]c3n2)cc(F)c1N1CCC(N2CCN(C)CC2)CC1 [Example 148, N2-(3-fluoro-5-methoxy-4-(4-(4-methylpiperazin-1-yl)piperidin-1-yl)phenyl)-N4-(1-(methylsulfonyl)indolin-7-yl)-7H-pyrrolo[2,3-d]pyrimidine-2,4-diamine] | 1390 nM | 9.9 nM | 6.5 nM |
| CN1CCN(C2CCN(c3ccc(Nc4nc(Nc5cccc6c5N(S(C)(=O)=O)CC6)c5cc[nH]c5n4)nc3)CC2)CC1 [Example 154, N2-(5-(4-(4-methylpiperazin-1-yl)piperidin-1-yl)pyridin-2-yl)-N4-(1-(methylsulfonyl)indolin-7-yl)-7H-pyrrolo[2,3-d]pyrimidine-2,4-diamine] | 303 nM | 2.7 nM | 2.2 nM |
| C#Cc1cnc(Nc2ccc(N3CCC(N4CCN(C)CC4)CC3)cc2OC)nc1Nc1cccc2c1N(S(C)(=O)=O)CC2 [Example 196, 5-ethynyl-N2-(2-methoxy-4-(4-(4-methylpiperazin-1-yl)piperidin-1-yl)phenyl)-N4-(1-(methylsulfonyl)indolin-7-yl)pyrimidine-2,4-diamine] | 9.3 nM | 1.3 nM | 1.5 nM |

Compounds with a lower IC50 [1], results first:

| IC50 [1] | IC50 [2] | IC50 [3] | SMILES |
| --- | --- | --- | --- |
| 1.4 nM | 0.3 nM | 0.9 nM | COc1cc(N2CCC(N3CCN(C)CC3)CC2)ccc1Nc1ncc(Br)c(Nc2cccc3c2N(S(C)(=O)=O)C2(CC2)C3)n1 [Example 136, 5-bromo-N2-(2-methoxy-4-(4-(4-methylpiperazin-1-yl)piperidin-1-yl)phenyl)-N4-(1′-(methylsulfonyl)spiro[cyclopropane-1,2′-indolin]-7′-yl)pyrimidine-2,4-diamine] |
| 5.5 nM | 0.48 nM | 0.63 nM | CC1Cc2c(N3CCC(N(C)C)CC3)ccc(Nc3ncc(Br)c(Nc4cccc5c4N(S(C)(=O)=O)CC5)n3)c2O1 (stereo not drawn) [Example 65, 5-bromo-N^2-(4-(4-(dimethylamino)piperidin-1-yl)-2-methyl-2,3-dihydrobenzofuran-7-yl)-N^4-(1-(methylsulfonyl)indolin-7-yl)pyrimidine-2,4-diamine] |
| 1.2 nM | 1.2 nM | 2.9 nM | COc1cc(N2CCC(N3CCN(C)CC3)CC2)c(C)cc1Nc1nc(N)c(Br)c(Nc2cccc3c2N(S(C)(=O)=O)CC3)n1 [Example 197, 5-bromo-N2-(2-methoxy-5-methyl-4-(4-(4-methylpiperazin-1-yl)piperidin-1-yl)phenyl)-N4-(1-(methylsulfonyl)indolin-7-yl)pyrimidine-24,6-triamine] |
| 3.2 nM | 0.3 nM | 0.7 nM | COc1cc(N2CCC3(CCN(C)CC3)CC2)c(Cl)cc1Nc1ncc(Br)c(Nc2cccc3c2N(S(C)(=O)=O)CC3)n1 [Example 44, 5-bromo-N^2-(5-chloro-2-methoxy-4-(9-methyl-3,9-diazaspiro[5.5]undecan-3-yl)phenyl)-N^4-(1-(methylsulfonyl)indolin-7-yl)pyrimidine-2,4-diamine] |
| 0.9 nM | 0.3 nM | 0.6 nM | COc1cc(N2CCC(N3CCN(C)CC3)CC2)c(C)cc1Nc1ncc(Br)c(Nc2cccc3c2N(S(C)(=O)=O)CC32CC2)n1 [Example 181, 5-bromo-N2-(2-methoxy-5-methyl-4-(4-(4-methylpiperazin-1-yl)piperidin-1-yl)phenyl)-N4-(1′-(methylsulfonyl)spiro[cyclopropane-1,3′-indolin]-7′-yl)pyrimidine-2,4-diamine] |
| 0.5 nM | 0.3 nM | 0.35 nM | CN1CCN(C2CCN(c3c(F)cc(Nc4ncc(Br)c(Nc5cccc6c5N(S(C)(=O)=O)CC6)n4)c4c3CCO4)CC2)CC1 [Example 60, 5-bromo-N^2-(5-fluoro-4-(4-(4-methylpiperazin-1-yl)piperidin-1-yl)-2,3-dihydrobenzofuran-7-yl)-N^4-(1-(methylsulfonyl)indolin-7-yl)pyrimidine-2,4-diamine] |
| 1.5 nM | 0.3 nM | 0.3 nM | CCN1CCN(C2CCN(c3cc(F)c(Nc4ncc(Br)c(Nc5cccc6c5N(S(C)(=O)=O)CC6)n4)cc3F)CC2)CC1 [Example 185, 5-bromo-N2-(4-(4-(4-ethylpiperazin-1-yl)piperidin-1-yl)-2,5-difluorophenyl)-N4-(1-(methylsulfonyl)indolin-7-yl)pyrimidine-2,4-diamine] |
